Assays:
RAW 264.7 cells [1] = assay: In vitro toxicity (CellTiter-Glo cell viability), RAW 264.7; format: cell-based;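 note: percent of untreated cells luminescence signal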
Procedure, shortened: (§1)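 Cells were transfected with RNA-LNPs at 1 μg/mL and, 72 hours later, viability was measured by CellTiter-Glo luminescence. Values are cell viability calculated from the luminescence signal.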

MCP-I = MCP-I cytokine elevation in serum; format: in vivo; details: cirRNA (SEQ ID NO: 1) LNPs, mice
Protocol: 6-8 week old, female BALB/C mice were injected with 0.5 mg*kg-1 of RNA LNPs by intravenous injection. At 2 and 24 hours post injection, animals were bled and sera concentrations of MCP-I were determined by an immunoassay (Luminex).

Hep G2 cells [2] = assay: In vitro expression of firefly-luciferase, Hep G2; format: cell-based
Procedure, shortened: (§2)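 Both cell lines receive RNA-LNPs carrying firefly-luciferase RNA at 100 ng/mL. Lysis follows washing at 72 h post-transfection, and luciferase activity is then quantified on a luminometer using a commercial luciferase assay reagent.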

Hep G2 cells [3] = assay: In vitro toxicity (CellTiter-Glo cell viability), Hep G2; format: cell-based;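 note: percent of untreated cells luminescence signal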
Procedure, shortened: as §1

BALB/C mice [4] = assay: In vivo expression, whole-body luminescence (IVIS)
Protocol: 6-8 week old, female BALB/C mice were injected with 0.05 mg*kg-1 of RNA-LNPs encoding for firefly-luciferase by intravenous injection. At 6 hours post injection, animals were intraperitoneally injected with 15 mg/ml of Luciferin substrate and whole-body luminescence was determined by a bioluminescent in vivo imaging system (IVIS).

BALB/C mice [5] = assay: Local tolerance determination by footpad injection; format: in vivo; details: cirRNA (SEQ ID NO: 1) LNP, 0.175 mg*kg-1 subcutaneous into the footpad, 24 hours post minus prior
Protocol: 6-8 week old, female BALB/C mice were injected with 0.175 mg*kg-1 RNA LNPs by subcutaneous injection into the footpad. Prior to, and 24 hours post injections, injected footpad thickness was determined by a caliper.

[6] = system: Aspartate Aminotransferase (AST); assay: Liver enzyme elevation in serum, AST; format: in vivo; details: cirRNA (SEQ ID NO: 1) LNPs, BALB/C mice, intravenous 0.5 MPK
Protocol: (§3) 6-8 week old, female BALB/C mice were injected with 0.5 mg*kg-1 of RNA LNPs by intravenous injection. At 2 and 24 hours post injection, animals were bled and sera concentrations of Alanine Aminotransferase (ALT) and Aspartate Aminotransferase (AST) were determined by a blood chemistry analyzer.

RAW 264.7 cells [7] = assay: In vitro expression of firefly-luciferase, RAW 264.7; format: cell-based
Procedure, shortened: as §2

[8] = RNA encapsulation efficacy by Quant-IT Ribogreen kit; format: physicochemical; details: for Encapsulation Efficiency %: LNP with cirRNA (SEQ ID NO: 1); for Encapsulation Efficiency: LNP with mRNA (SEQ ID NO: 2)
Procedure, shortened: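 Ribogreen read-out: encapsulation = 100% − (signal of intact RNA-LNPs / signal with Triton X-100). Particles: ionizable lipid:DSPC:Chol:DMG-PEG2000 50:10:38.5:1.5, ionizable lipid:ribonucleotide 15 or 6, final lipid 1.5–6 mM, PBS-dialyzed.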

[9] = system: Alanine Aminotransferase (ALT); assay: Liver enzyme elevation in serum, ALT; format: in vivo; details: cirRNA (SEQ ID NO: 1) LNPs, BALB/C mice, intravenous 0.5 MPK
Protocol: as §3

[10] = LNP size and polydispersity index (PDI) by dynamic light scattering; format: physicochemical; details: for Size: in nm (unit assumed)
Procedure, shortened: (§4)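 LNPs of ionizable lipid/DSPC/cholesterol/DMG-PEG 2000 (50:10:38.5:1.5) made by microfluidic mixing of luciferase circRNA or mRNA in pH 4.5 acetate with lipids in ethanol (3:1, 12 ml/min), ionizable lipid:nucleotide 15 or 6, then dialyzed against PBS. Size, PDI (DLS) and zeta potential on Zetasizer; encapsulation by Ribogreen ± Triton X-100.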

[11] = LNP zeta potential (Zetasizer); format: physicochemical
Procedure, shortened: as §4

[12] = cirRNA (SEQ ID NO: 1) LNPs, RAW 264.7 cells
[13] = mRNA (SEQ ID NO: 2) LNP, 1 μg/mL, 72 hours post transfection
[14] = cirRNA (SEQ ID NO: 1) LNPs, firefly-luciferase luminescence, Hep G2 cells
[15] = mRNA (SEQ ID NO: 2) LNP, 100 ng/mL, 72 hours post transfection, luciferase activity
[16] = cirRNA (SEQ ID NO: 1) LNPs, Hep G2 cells
[17] = cirRNA (SEQ ID NO: 1) LNPs, BALB/C mice
[18] = mRNA (SEQ ID NO: 2) LNP, 0.05 mg*kg-1 intravenous, 6 hours post injection
[19] = cirRNA (SEQ ID NO: 1) LNPs, firefly-luciferase luminescence, RAW 264.7 cells

MCP-I in Sera 2 hours After 0.5 MPK Injection (MCP-I) [pg/mL]	MCP-I in Sera 24 hours After 0.5 MPK Injection (MCP-I) [pg/mL]	Encapsulation Efficiency % [8] [%]	Encapsulation Efficiency [8] [%]	PDI ([10]; LNP with cirRNA (SEQ ID NO: 1))	SMILES	In vitro Viability RAW (RAW 264.7 cells [1]; [12]) [%]	In vitro Viability RAW (RAW 264.7 cells [1]; [13]) [%]	In vitro Expression HepG2 (Hep G2 cells [2]; [14])	In vitro Expression HepG2 (Hep G2 cells [2]; [15])	In vitro Viability HepG2 (Hep G2 cells [3]; [16]) [%]	In vitro Viability HepG2 (Hep G2 cells [3]; [13]) [%]	In vivo Expression (Whole Body) (BALB/C mice [4]; [17])	In vivo Expression (Whole Body) (BALB/C mice [4]; [18])	Footpad Thickness (24 h−0 h, mm) (BALB/C mice [5]) [mm]	AST in Sera (IU/L) 2 hours After 0.5 MPK Injection [6] [IU/L]	AST in Sera (IU/L) 24 hours After 0.5 MPK Injection [6] [IU/L]	In vitro Expression RAW (RAW 264.7 cells [7]; [19])	In vitro Expression RAW (RAW 264.7 cells [7]; [15])	ALT in Sera (IU/L) 2 hours After 0.5 MPK Injection [9] [IU/L]	ALT in Sera (IU/L) 24 hours After 0.5 MPK Injection [9] [IU/L]	further results
1986.67	522.62	93	94.51	0.2068	CCCCC/C=C\C/C=C\CCCCCCCCN(CCCCCCCC(=O)OC(CCCCCCCC)CCCCCCCC)CCCOC(=O)NCc1ncc[nH]1 [Lipid 271]	121	85	5.51E+06	3.69E+06	91	117	8.99E+07	8.51E+08	0.40	200.67	231.33	1.59E+06	6.06E+06	128.33	114.67	Size ([10]; LNP with cirRNA (SEQ ID NO: 1)): 98.73; PDI ([10]; LNP with mRNA (SEQ ID NO: 2)): 0.1219; Size ([10]; LNP with mRNA (SEQ ID NO: 2)): 97.34; Zeta (mV) ([11]; LNP with cirRNA (SEQ ID NO: 1)): 0.345 mV; Zeta (mV) ([11]; LNP with mRNA (SEQ ID NO: 2)): 0.8825 mV
1659.21	120.48	96	94.50	0.1464	CCCCC/C=C\C/C=C\CCCCCCCCN(CCCCCCCC(=O)OC(CCCCCCCC)CCCCCCCC)CCCOC(=O)NCCCn1ccnc1 [Lipid 276]	117	83	9.80E+05	3.01E+05	95	115	1.88E+08	1.26E+07	0.51	247.33	89.67	1.07E+06	8.16E+05	247.67	52.00	Size ([10]; LNP with cirRNA (SEQ ID NO: 1)): 64.42; PDI ([10]; LNP with mRNA (SEQ ID NO: 2)): 0.07602; Size ([10]; LNP with mRNA (SEQ ID NO: 2)): 88.07; Zeta (mV) ([11]; LNP with cirRNA (SEQ ID NO: 1)): −0.02248 mV; Zeta (mV) ([11]; LNP with mRNA (SEQ ID NO: 2)): 0.8258 mV
1815.67	1070.74	96	86.19	0.1471	CCCCC/C=C\C/C=C\CCCCCCCCN(CCCCCCCC(=O)OC(CCCCCCCC)CCCCCCCC)CCCOC(=O)NCCN1CCCCC1 [Lipid 278]	132	83	2.22E+07	3.75E+07	91	100	1.19E+08	2.18E+08	0.63	275.33	322.67	8.67E+06	6.01E+06	177.33	102.50	Size ([10]; LNP with cirRNA (SEQ ID NO: 1)): 91.92; PDI ([10]; LNP with mRNA (SEQ ID NO: 2)): 0.1831; Size ([10]; LNP with mRNA (SEQ ID NO: 2)): 119; Zeta (mV) ([11]; LNP with cirRNA (SEQ ID NO: 1)): 0.06032 mV; Zeta (mV) ([11]; LNP with mRNA (SEQ ID NO: 2)): 0.3567 mV
7150.00	946.87	97	93.45	0.1332	CCCCCCCCC(CCCCCCCC)OC(=O)CCCCCCCN(CCCCCCCCOC(=O)C(CCCCCC)CCCCCCCC)CCCOC(=O)NCCN(C)C (stereo not drawn) [Lipid 344]	94	88	1.08E+07	8.78E+07	96	78	7.43E+07	2.15E+09	0.53	333.67	340.00	1.97E+06	1.59E+07	161.67	204.33	Size ([10]; LNP with cirRNA (SEQ ID NO: 1)): 98.08; PDI ([10]; LNP with mRNA (SEQ ID NO: 2)): 0.1063; Size ([10]; LNP with mRNA (SEQ ID NO: 2)): 97.82; Zeta (mV) ([11]; LNP with cirRNA (SEQ ID NO: 1)): 2.343 mV; Zeta (mV) ([11]; LNP with mRNA (SEQ ID NO: 2)): 1.967 mV
1894.33	128.60	98	83.15	0.2546	CCCCCCCCC(CCCCCCCC)OC(=O)CCCCCCCN(CCCCCCCCOC(=O)C(CCCCCC)CCCCCCCC)CCCOC(=O)NCCCN(C)C (stereo not drawn) [Lipid 348]	73	77	1.59E+06	1.45E+07	65	60	6.47E+07	1.87E+07	0.78	307.00	148.00	2.47E+05	2.52E+03	82.33	96.33	Size ([10]; LNP with cirRNA (SEQ ID NO: 1)): 100.8; PDI ([10]; LNP with mRNA (SEQ ID NO: 2)): 0.1488; Size ([10]; LNP with mRNA (SEQ ID NO: 2)): 101.8; Zeta (mV) ([11]; LNP with cirRNA (SEQ ID NO: 1)): 1.734 mV; Zeta (mV) ([11]; LNP with mRNA (SEQ ID NO: 2)): 8.774 mV
6084.33	2039.50	97	83.19	0.1717	CCCCCCCCC(CCCCCCCC)OC(=O)CCCCCCCN(CCCCCCCCOC(=O)C(CCCCCC)CCCCCCCC)CCCOC(=O)NCCN1CCCC1 (stereo not drawn) [Lipid 350]	74	86	1.43E+07	4.34E+07	95	111	1.03E+08	5.29E+08	0.55	368.00	362.67	3.38E+06	5.78E+06	105.67	121.33	Size ([10]; LNP with cirRNA (SEQ ID NO: 1)): 112.8; PDI ([10]; LNP with mRNA (SEQ ID NO: 2)): 0.1151; Size ([10]; LNP with mRNA (SEQ ID NO: 2)): 105.3; Zeta (mV) ([11]; LNP with cirRNA (SEQ ID NO: 1)): 6.91 mV; Zeta (mV) ([11]; LNP with mRNA (SEQ ID NO: 2)): 0.9211 mV

Reference: patent US12691070B2, “Cationic lipids and preparation method thereof” (RiboX Therapeutics HK Limited, priority 2023, dated 2026)
